In paper PMC8033486 (Frontiers in Pharmacology, 2021):
Structures can show the parent of a compound that is named as a salt. Where two headings read alike, the source gives them in different places. *1 amine or outer side, *2 acyl side, *3 side chain or, on linkers, in order; H or OH if unused. Where a SMILES comes first, the peptide text is derived from it. Bridges are numbered along the chain shown (N, C = ends). [ ]: non-standard residue; d: D form. The star is where a group is joined. X1 = CC[C@H](C)[C@@H](N[*:1])[C@@H](O)CC(=O)O[C@H](C(=O)[C@H](C)C(=O)[*:2])C(C)C; NMeY = CN[C@@H](Cc1ccc(O)cc1)C(=O)O; dNMeL = CN[C@H](CC(C)C)C(=O)O; Pyruvoyl = CC(=O)C(=O)*; Cbz = O=C(OCc1ccccc1)*

What was measured:
[1] = in vitro; settings: African green monkey
[2] = system: SARS-CoV-2; test: microbe, parasite or virus in culture; format: cell-based
[3] = CC50, Vero E6, no virus, 3 days
[4] = Severe acute respiratory syndrome coronavirus 2, Vero C1008, 72 h, Vero E6, cytopathic effect 3 days after infection, repeated experiments, read-out: IC50 (Mean +/- SD)
[5] = Severe acute respiratory syndrome coronavirus 2, Vero C1008, Vero E6, one representative experiment with two replicates, when combined, each drug at the same concentration, read-out: IC50 value of the particular graph
[6] = Vero E6, cytopathic effect 3 days after infection, repeated experiments, read-out: IC50 (Mean +/- SD)
[7] = Severe acute respiratory syndrome coronavirus 2, Vero C1008, 72 h, read-out: IC50 (Mean +/- SD)

Compound: C[C@H]1c2cccc(O)c2C(=O)C2=C(O)[C@]3(O)C(=O)C(C(N)=O)=C(O)[C@@H](N(C)C)[C@@H]3[C@@H](O)[C@@H]21 [Doxycycline]
- CC50 at 3 days [1, 3]: > 100 µM

Compound: CC[C@H]1OC(=O)[C@H](C)[C@@H](O[C@H]2C[C@@](C)(OC)[C@@H](O)[C@H](C)O2)[C@H](C)[C@@H](O[C@@H]2O[C@H](C)C[C@H](N(C)C)[C@H]2O)[C@](C)(O)C[C@@H](C)CN(C)[C@H](C)[C@@H](O)[C@]1(C)O [Azithromycin]
- CC50 at 3 days [1, 3]: > 100 µM

Compound: CCN(CC)CCCC(C)Nc1c2ccc(Cl)cc2nc2ccc(OC)cc12 (stereo not shown) [Quinacrine dihydrochloride]
- CC50 at 3 days [1, 3]: > 6 µM

Compound: CN(C)[C@@H]1C(O)=C(C(N)=O)C(=O)[C@@]2(O)C(O)=C3C(=O)c4c(O)c(NC(=O)CN5CCCC5)cc(F)c4C[C@H]3C[C@@H]12 [Eravacycline]
- CC50 at 3 days [1, 3]: > 4 µM

Compound: CCS(=O)(=O)N1CC(CC#N)(n2cc(-c3ncnc4[nH]ccc34)cn2)C1 [Baricitinib]
- CC50 [1]: > 85 µM

Compound: interferon-γ [IFN stimulated antivirus proteins; granulomatous disease]
- Inhibition of SARS-CoV-2-induced cytopathic effect, result in words ([2]; Vero E6): displayed antiviral activity

Compound: NC(=O)c1nc(F)c[nH]c1=O [Favipiravir]
- Inhibition of SARS-CoV-2-induced cytopathic effect, result in words ([2]; Vero E6): only partial inhibitory activity at the non-toxic concentration of 100 µM
- CC50 at 3 days ([1]; CC50): > 100 µM

Compound: N#Cc1ccccc1-c1cc(-c2ccccn2)cn(-c2ccccc2)c1=O [Perampanel]
- IC50 (Mean +/- SD) [2]: Not Active

Compound: CC(C)(C)NC(=O)N[C@H](C(=O)N1C[C@H]2[C@@H]([C@H]1C(=O)NC(CC1CCC1)C(=O)C(N)=O)C2(C)C)C(C)(C)C (stereo partly shown) [Boceprevir]
- CC50 at 3 days ([1]; CC50): > 100 µM

Compound: COC[C@H]1C[C@@H](c2ncc(-c3ccc4c(c3)COc3cc5c(ccc6nc([C@@H]7CC[C@H](C)N7C(=O)[C@@H](NC(=O)OC)C(C)C)[nH]c65)cc3-4)[nH]2)N(C(=O)[C@H](NC(=O)OC)c2ccccc2)C1 [Velpatasvir]
- CC50 at 3 days ([1]; CC50): > 10 µM

Compound: CC(=O)c1c(C)c2cnc(Nc3ccc(N4CCNCC4)cn3)nc2n(C2CCCC2)c1=O [Palbociclib]
- CC50 at 3 days [1, 3]: 2.7 µM

Compound: OC(Cn1cncn1)(Cn1cncn1)c1ccc(F)cc1F [Fluconazol]
- CC50 at 3 days [1, 3]: > 100 µM

Compound: COc1cc(C2Oc3cc([C@H]4Oc5cc(O)cc(O)c5C(=O)[C@@H]4O)ccc3OC2CO)ccc1O (stereo partly shown) [Silibinin]
- CC50 at 3 days [1, 3]: > 20 µM

Compound: Laflunimus Sodium Salt
- IC50 (Mean +/- SD) [2]: Not Active

Compound: CCN(CCO)CCCC(C)Nc1ccnc2cc(Cl)ccc12 (stereo not shown) [Hydroxychloroquine]
- IC50 [2, 4]: 9.3 ± 11.1 µM
- IC50 [2, 5]: 2.1 µM
- Inhibition of SARS-CoV-2-induced cytopathic effect, result in words ([2]; Vero E6): able to inhibit viral-induced cytopathic effects at concentrations where no cytotoxic effects of the drug were observed
- CC50 at 3 days [1, 3]: > 80 µM

Compound: Cc1cccc(C)c1OCC(=O)N[C@@H](Cc1ccccc1)[C@@H](O)C[C@H](Cc1ccccc1)NC(=O)[C@H](C(C)C)N1CCCNC1=O [Lopinavir]
- Inhibition of SARS-CoV-2-induced cytopathic effect, result in words ([2]; Vero E6): inhibited SARS-CoV-2-induced cytopathic effect at the non-toxic concentration of 20 μM
- CC50 at 3 days [1, 3]: > 87 µM

Compound: Ivermectin
- IC50 (Mean +/- SD) [2]: Not Active

Compound: NC12CC3CC(CC(C3)C1)C2 [Amantadine]
- Inhibition of SARS-CoV-2-induced cytopathic effect, result in words ([2]; Vero E6): only a partial inhibition at 100 μM
- CC50 at 3 days [1, 3]: > 100 µM

Compound: CC1SCC(C(=O)NC(Cc2cnc[nH]2)C(=O)N2CCCC2C(N)=O)NC1=O.O=C(O)C(F)(F)F (stereo not shown) [Montirelin trifluoroacetate salt]
- IC50 (Mean +/- SD) [2]: Not Active

Compound: CC(=O)N[C@H]1C([C@H](O)[C@H](O)CO)O[C@@](O[C@@H]2C(O)[C@H](O[C@@H]3C(CO)OC(O)C(O)[C@H]3O)OC(CO)[C@@H]2O)(C(=O)[O-])C[C@H]1O.[Na+] (stereo partly shown) [3’ Sialyllactose Na Salt]
- Inhibition of SARS-CoV-2-induced cytopathic effect, result in words ([2]; Vero E6): not able to reduce viral-induced cytopathic effect

Compound: CCC[C@@]1(CCc2ccccc2)CC(O)=C([C@H](CC)c2cccc(NS(=O)(=O)c3ccc(C(F)(F)F)cn3)c2)C(=O)O1 [Tipranavir]
- Inhibition of SARS-CoV-2-induced cytopathic effect, result in words ([2]; Vero E6): inhibited SARS-CoV-2-induced cytopathic effect at the non-toxic concentration of 20 μM
- CC50 at 3 days [1, 3]: > 70 µM

Compound: C[C@@H]1CCN(C(=O)CC#N)C[C@@H]1N(C)c1ncnc2[nH]ccc12 [Tofacitinib]
- Inhibition of SARS-CoV-2-induced cytopathic effect, result in words ([2]; Vero E6): failed to protected Vero E6 cells from SARS-CoV-2 induced cytopathic effect
- CC50 at 3 days [1, 3]: > 100 µM

Compound: CCOC(=O)Cn1cccc1-c1nc(-c2ccc(OC)cc2)c(-c2ccc(OC)cc2)s1 [Pamicogrel]
- CC50 at 3 days ([1]; CC50): 6.4 µM

Compound: CCC(CC)COC(=O)[C@H](C)N[P@](=O)(OC[C@H]1O[C@@](C#N)(c2ccc3c(N)ncnn23)[C@H](O)[C@@H]1O)Oc1ccccc1 [Remdesivir]
- IC50 [2, 5]: 1.2 µM
- IC50 [2, 6]: < 10 µM
- CC50 [1]: > 85 µM

Compound: CC(C)(C)NC(=O)[C@@H]1C[C@@H]2CCCC[C@@H]2CN1C[C@@H](O)[C@H](Cc1ccccc1)NC(=O)[C@H](CC(N)=O)NC(=O)c1ccc2ccccc2n1 [Saquinavir]
- CC50 at 3 days [1, 3]: > 28 µM

Compound: CC(C)OC(=O)[C@H](C)N[P@](=O)(OC[C@H]1O[C@@H](n2ccc(=O)[nH]c2=O)[C@](C)(F)[C@@H]1O)Oc1ccccc1 [Sofosbuvir]
- IC50 (Mean +/- SD) [2]: Not Active
- CC50 [1]: > 100 µM

Compound: NC(N)=Nc1nc(CSCCC(N)=NS(N)(=O)=O)cs1 [Famotidine]
- IC50 (Mean +/- SD) ([2]; Vero E6, cytopathic effect 3 days after infection, repeated experiments): Not Active
- CC50 at 3 days [1, 3]: > 100 µM

Compound: CN(C)C(=O)c1cc2cnc(Nc3ccc(N4CCNCC4)cn3)nc2n1C1CCCC1 [Ribociclib]
- IC50 (Mean +/- SD) [2]: Not Active
- CC50 at 3 days [1, 3]: > 20 µM

Compound: O=C(O)c1nn(Cc2ccc(Cl)cc2Cl)c2ccccc12 [Diclondazolic acid (Lonidamine), Diclondazolic acid]
- IC50 (Mean +/- SD) [2]: Not Active

Compound: CC[C@H](C)[C@H]1NC(=O)[C@@H](NC(=O)[C@@H](CC(C)C)N(C)C(=O)[C@@H]2CCCN2C(=O)C(C)=O)[C@@H](C)OC(=O)[C@H](Cc2ccc(OC)cc2)N(C)C(=O)[C@@H]2CCCN2C(=O)[C@H](CC(C)C)NC(=O)[C@@H](C)C(=O)[C@H](C(C)C)OC(=O)C[C@@H]1O [Plitidepsin] (Pyruvoyl-P[dNMeL]T[X1]LP[NMeY](Me); ester 3-C)
- IC50 [2, 7]: 0.06 µM
- IC50 [2, 5]: 0.05 µM
- Inhibition of SARS-CoV-2-induced cytopathic effect, result in words ([2]; Vero E6): always in nM concentrations
- CC50 [1]: > 0.1 µM

Compound: Nc1ncnc2c([C@@H]3N[C@H](CO)[C@@H](O)[C@H]3O)c[nH]c12 [Galdesivir]
- IC50 (Mean +/- SD) [2]: Not Active
- Inhibition of SARS-CoV-2-induced cytopathic effect, result in words ([2]; Vero E6): no antiviral effect

Compound: O=C(Nc1ccc([N+](=O)[O-])cc1Cl)c1cc(Cl)ccc1O [Niclosamide]
- Inhibition of SARS-CoV-2-induced cytopathic effect, result in words ([2]; Vero E6): failed to protected Vero E6 cells from SARS-CoV-2 induced cytopathic effect
- CC50 at 3 days [1, 3]: > 9 µM

Compound: CC(C)CN(C[C@@H](O)[C@H](Cc1ccccc1)NC(=O)O[C@H]1CO[C@H]2OCC[C@H]21)S(=O)(=O)c1ccc(N)cc1 [Darunavir]
- IC50 (Mean +/- SD) [2]: partially active at 100

Compound: CC(C)[C@H](NC(=O)OCc1ccccc1)C(=O)N[C@H](C=O)Cc1ccccc1 [MDL 28170] (Cbz-Val-Phe-aldehyde)
- IC50 [2, 7]: 0.14 µM
- IC50 ([2]; Severe acute respiratory syndrome coronavirus 2, Vero C1008, read-out: IC50 value of the particular graph, Vero E6, one representative experiment with two replicates, when combined, each drug at the same concentration): 0.2 µM
- Inhibition of SARS-CoV-2-induced cytopathic effect, result in words ([2]; Vero E6): activity in the nanomolar range
- CC50 [1]: > 87 µM

Compound: OC(c1cc(C(F)(F)F)nc2c(C(F)(F)F)cccc12)C1CCCCN1 (stereo not shown) [Mefloquine hydrochloride]
- CC50 at 3 days [1, 3]: > 100 µM

Compound: CC(=O)N[C@@H](CS)C(=O)O [N-Acetil cystein]
- IC50 (Mean +/- SD) [2]: Not Active

Compound: Methyl-ß-cyclodextrin
- IC50 (Mean +/- SD) [2]: active at 1000
- Inhibition of SARS-CoV-2-induced cytopathic effect, result in words ([2]; Vero E6): abrogate SARS-CoV-2 induced cytopathic effect

Compound: COc1c(O[C@@H]2O[C@H](CO)[C@@H](O)[C@H](O)[C@H]2O)cc2c(c1OC)-c1ccc(SC)c(=O)cc1[C@@H](NC(C)=O)CC2 [Thiocolchicoside]
- IC50 (Mean +/- SD) [2]: Not Active

Compound: CC(C)OC(=O)[C@H](C)N[P@](=O)(CO[C@H](C)Cn1cnc2c(N)ncnc21)Oc1ccccc1 [Tenofovir Alafenamide]
- IC50 (Mean +/- SD) [2]: Not Active
- Inhibition of SARS-CoV-2-induced cytopathic effect, result in words [2]: failed to show any antiviral effect
- CC50 [1]: > 100 µM

Compound: CCCCOc1nc(N)c2c(n1)N(Cc1cccc(CN3CCCC3)c1)CC(=O)N2 [Vesatolimod]
- Inhibition of SARS-CoV-2-induced cytopathic effect, result in words ([2]; Vero E6): not able to protect from the viral-induced cytopathic effect
- CC50 at 3 days [1, 3]: > 20 µM

Compound: CCOC(=O)C1=C(CN2CCOCC2)NC(c2nccs2)=NC1c1ccc(F)cc1Br (stereo not shown) [Morphothiadine]
- IC50 (Mean +/- SD) [2]: Not Active

Compound: Cc1c(O)cccc1C(=O)N[C@@H](CSc1ccccc1)[C@H](O)CN1C[C@H]2CCCC[C@H]2C[C@H]1C(=O)NC(C)(C)C [Nelfinavir mesylate hydrate]
- IC50 [2, 4]: < 10 µM
- IC50 [2, 5]: 1.4 µM
- CC50 at 3 days [1, 3]: > 25 µM

Compound: CCC(C)n1ncn(-c2ccc(N3CCN(c4ccc(OCC5COC(Cn6cncn6)(c6ccc(Cl)cc6Cl)O5)cc4)CC3)cc2)c1=O (stereo not shown) [Itraconazole]
- IC50 [2, 4]: 79.4 µM
- IC50 [2, 5]: 79.4 µM
- IC50 [2, 6]: 80 µM
- CC50 at 3 days [1, 3]: > 100 µM

Compound: CC(C)CN(C[C@@H](O)[C@H](Cc1ccccc1)NC(=O)O[C@H]1CCOC1)S(=O)(=O)c1ccc(N)cc1 [Amprenavir]
- Inhibition of SARS-CoV-2-induced cytopathic effect, result in words ([2]; Vero E6): exhibited activity at the non-toxic concentration of 100 µM
- CC50 at 3 days ([1]; CC50): > 100 µM

Compound: CC(C)OC(=O)OCOP(=O)(CO[C@H](C)Cn1cnc2c(N)ncnc21)OCOC(=O)OC(C)C [Tenofovir disoproxil fumarate]
- Inhibition of SARS-CoV-2-induced cytopathic effect, result in words ([2]; Vero E6): failed to show any antiviral effect
- CC50 [1]: > 100 µM

Compound: COc1cc2c(c(OC)c1OC)-c1ccc(OC)c(=O)cc1[C@@H](NC(C)=O)CC2 [Colchicine]
- CC50 [1]: 0.63 µM

Compound: CC(C)CN(C[C@@H](OP(=O)(O)O)[C@H](Cc1ccccc1)NC(=O)O[C@H]1CCOC1)S(=O)(=O)c1ccc(N)cc1 [Fosamprenavir Calcium]
- CC50 at 3 days [1, 3]: > 25 µM
